Data on one compound can be found in patent US20120214818A1, “METHODS OF TREATING DIASTOLIC DYSFUNCTION AND RELATED CONDITIONS” (THE BOARD OF TRUSTEES OF THE UNIVERSITY OF ILLINOIS, priority 2009, published 2012).

One experiment has as its system DOCA-salt and sham mice. In words: Echocardiography after chronic administration of ranolazine. To be noted: for ES (%): chronic ranolazine in diet (5 mg per 1-g tablet, ~1 g daily) for 7 days. It is filed as in vivo, mouse. How it is done:
A special diet contained 5 mg ranolazine, 0.3 mg P450 inhibitor, and 0.25 mg red food color was pressed into a 1-g nutritionally complete grain-based tablet (Harlan, Madison, Wis.). The control diet contained 0.3 mg P450 inhibitor and 0.25 mg yellow food color pressed into the same type of 1-g tablets. DOCA-salt and sham mice consumed daily ˜1 g of the special diet from postoperative day 11 to 18.
Mice were anesthetized, maintained at 37° C., and studied by echocardiography (Vevo 770, VisualSonics Inc, Toronto, Canada). M-mode images in the parasternal long axis and the left ventricle (LV) short-axis views at the mid-papillary level were taken. Measurements were averaged from three consecutive beats during expiration. LV inflow velocities (E and A waves) were interrogated by conventional pulsed-wave Doppler from the apical four-chamber view. The mitral annulus longitudinal velocities (Sm, E′, and A′) were determined by pulsed-wave tissue Doppler from the apical four-chamber view. Interpretation was done by a two investigators blinded to the treatment groups. First, baseline images were acquired. Subsequently to determine the acute effect, the mice were injected with 30 mg/kg ranolazine by intraperitoneal route, followed by a second echocardiogram 30 min later.
In an additional set of experiments, we treated DOCA-salt mice with ranolazine for 7 days and measured diastolic function using echocardiography to evaluate the effect of chronic ranolazine therapy on myocardial function (Table 5).

Experiment [1] deals with late INa in isolated murine ventricular myocytes. In words: Voltage-clamp determination of sodium current (late INa). It is filed as cell-based, mouse. Details: late INa (integrated from 5% of peak current to 40 ms after depolarization): unit not given here. To be noted: 10 μmol/L ranolazine extracellular; for late INa (integrated from 5% of peak current to 40 ms after depolarization): 15 min. As to the method: Electrophysiological determination of sodium current: Voltage-clamp experiments were performed on isolated murine ventricular myocytes with an Axopatch 200B amplifier (Molecular Devices, Sunnyvale, Calif.) in whole cell configuration. Data acquisition was performed at a sampling rate of 20 kHz and filtered at 10 kHz. Data recording and analysis were done with the pClamp8 software suite (Molecular Devices) and OriginPro 8 (Originlab, Northampton, Mass.). All experiments were carried out at room temperature. Myocytes were plated on glass cover slips and were perfused with a low-sodium Tyrode solution containing the following (in mM): N-methyl-D-glucamine 100 (titrated to pH 7.4 with HCl), NaCl 15, tetramethylammonium chloride 20, CsC15, MgCl2 1, glucose 10, 4-aminopyridine 3, MnCl2 2, HEPES10, and CaCl2 1 (final pH 7.4, CsOH). Patch electrodes were pulled from capillaries purchased from Harvard Apparatus (Holliston, Mass.) using a model P-97 puller from Sutter Instruments (Novato, Calif.). Electrodes were filled with an electrode solution containing (in mM): CsCl 20, tetraethylammonium chloride 20, glutamic acid 80, NaCl 10, MgCl2 1, MgATP 5, Li2GTP 0.3, HEPES10, EGTA 10, CaCl2 0.13 (corresponding to [Ca^2+]free of <10 nM).^23 Electrode solution pH was adjusted to 7.2 with CsOH. Electrodes used for these experiments had access resistances between 1.0 and 1.5 MΩ.
Ranolazine was provided as a crystalline solid by Gilead Sciences. Prior to experiments, a DMSO stock solution was prepared and diluted (minimum 100:1) directly into the Tyrode solution used for perfusion. Cells that were treated with ranolazine were exposed to the drug for 15 min prior to beginning voltage-clamp experiments.
Voltage clamping studies: Voltage-clamp experiments were performed on isolated murine ventricular myocytes with an Axopatch 200B amplifier (Molecular Devices, Sunnyvale, Calif.) in whole cell configuration. Data acquisition was performed at a sampling rate of 20 kHz and filtered at 10 kHz. […]

[2] abbreviates: DOCA-salt mice, chronic ranolazine in diet, 7 days.
Where [3] appears, read: sham mice, chronic ranolazine in diet, 7 days.

Several values for one entry are separate records, joined by “and”; a condition that tells them apart may be missing. Equal values may be shown once.

With `COc1ccccc1OCC(O)CN1CCN(CC(=O)Nc2c(C)cccc2C)CC1` (stereo not shown) [ranolazine], the “ES (%)” value in the experiment on DOCA-salt and sham mice (DOCA-salt mice) came to 53.3 ± 1.3%. Also, in the experiment with DOCA-salt and sham mice (setting [2]), the E/A turned out to be 1.84 ± 0.35; the “E′, early septal mitral annulus velocity (TDI)” value worked out at 1.86 ± 0.13 cm/s; the “Sm, systolic septal mitral annulus velocity (TDI)” value turned out to be 1.82 ± 0.05 cm/s. In the experiment with DOCA-salt and sham mice (sham mice), the “ES (%)” value was 49.7 ± 4.9%. Moreover, in the experiment with DOCA-salt and sham mice (setting [3]), the E/A is 2.42 ± 0.42; the “E/E′” value amounted to 28.0 ± 3.45; the “E′, early septal mitral annulus velocity (TDI)” value was 2.11 ± 0.21 cm/s; the “E′/A′” value turned out to be 1.03 ± 0.07. The “Sm, systolic septal mitral annulus velocity (TDI)” value with DOCA-salt and sham mice (setting [3]) is recorded as 2.04 ± 0.12 cm/s. In experiment [1] (DOCA-salt cardiomyocytes), the late accumulated charge entry is “did not affect the late accumulated charge”. Also, in experiment [1] (DOCA-salt myocytes), the “late INa (integrated from 5% of peak current to 40 ms after depolarization)” value is 0.1142±0.01272 and 0.114±0.013. Also, the “late INa (integrated from 5% of peak current to 40 ms after depolarization)” value in experiment [1] (sham myocytes) is 0.1126±0.00406 and 0.113±0.004.
